In PubChem BioAssay (NCI):
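1) Cells in 96-well plates. 2) Compound, 48 h, 5 concentrations. 3) Linear interpolation between surrounding doses. 4) Unreached endpoint = highest concentration. At the TGI there is no net growth.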

Key:
Assay in all cases: NCI tumour cell line growth inhibition, 48 h
SK-OV-3 ovarian = test system: SK-OV-3 ovarian
SN12C renal = test system: SN12C renal
HCC-2998 colon = test system: HCC-2998 colon
OVCAR-3 ovarian = test system: OVCAR-3 ovarian
U251 CNS = test system: U251 CNS
NCI-H226 lung = test system: NCI-H226 lung
K-562 leukemia = test system: K-562 leukemia
LOX IMVI melanoma = test system: LOX IMVI melanoma
MDA-MB-435 = test system: MDA-MB-435
TK-10 renal = test system: TK-10 renal
NCI-H460 lung = test system: NCI-H460 lung
SR leukemia = test system: SR leukemia
SF-295 CNS = test system: SF-295 CNS
HL-60(TB) leukemia = test system: HL-60(TB) leukemia
OVCAR-8 ovarian = test system: OVCAR-8 ovarian
786-0 renal = test system: 786-0 renal
CAKI-1 renal = test system: CAKI-1 renal
IGROV1 ovarian = test system: IGROV1 ovarian
UACC-62 melanoma = test system: UACC-62 melanoma
CCRF-CEM leukemia = test system: CCRF-CEM leukemia
RPMI-8226 leukemia = test system: RPMI-8226 leukemia
RXF 393 renal = test system: RXF 393 renal
SNB-75 CNS = test system: SNB-75 CNS
HOP-92 NSCLC = test system: HOP-92 NSCLC
NCI/ADR-RES ovarian = test system: NCI/ADR-RES ovarian
NCI-H23 lung = test system: NCI-H23 lung
SF-539 CNS = test system: SF-539 CNS
ACHN renal = test system: ACHN renal
HOP-62 NSCLC = test system: HOP-62 NSCLC
HS 578T breast = test system: HS 578T breast
NCI-H522 lung = test system: NCI-H522 lung
T-47D breast = test system: T-47D breast
MDA-N = test system: MDA-N
PC-3 prostate = test system: PC-3 prostate
SNB-19 CNS = test system: SNB-19 CNS
MCF7 breast = test system: MCF7 breast
DU-145 prostate = test system: DU-145 prostate
EKVX NSCLC = test system: EKVX NSCLC
KM12 colon = test system: KM12 colon
BT-549 breast = test system: BT-549 breast
COLO 205 colon = test system: COLO 205 colon
SW-620 colon = test system: SW-620 colon
HCT-116 colon = test system: HCT-116 colon
SK-MEL-2 melanoma = test system: SK-MEL-2 melanoma
OVCAR-5 ovarian = test system: OVCAR-5 ovarian
UO-31 renal = test system: UO-31 renal
SK-MEL-5 melanoma = test system: SK-MEL-5 melanoma
MOLT-4 leukemia = test system: MOLT-4 leukemia
HCT-15 colon = test system: HCT-15 colon
M14 melanoma = test system: M14 melanoma
A498 renal = test system: A498 renal
SF-268 CNS = test system: SF-268 CNS
UACC-257 melanoma = test system: UACC-257 melanoma
MDA-MB-231 breast = test system: MDA-MB-231 breast
OVCAR-4 ovarian = test system: OVCAR-4 ovarian

SMILES: O=C(OCC(OC(=O)c1ccccc1)C1CC(C(O)C2CCCCC2)C(=O)O1)c1ccccc1 (stereo not given)
- TGI (SK-OV-3 ovarian): > 100 µM
- TGI (SN12C renal): > 100 µM
- TGI (HCC-2998 colon): > 100 µM
- TGI (OVCAR-3 ovarian): > 100 µM
- TGI (U251 CNS): > 100 µM
- TGI (NCI-H226 lung): > 100 µM
- TGI (K-562 leukemia): 50.5 µM
- TGI (LOX IMVI melanoma): > 100 µM
- TGI (MDA-MB-435): > 100 µM
- TGI (TK-10 renal): > 100 µM
- TGI (NCI-H460 lung): > 100 µM
- TGI (SR leukemia): 44.8 µM
- TGI (SF-295 CNS): > 100 µM
- TGI (HL-60(TB) leukemia): 37 µM
- TGI (OVCAR-8 ovarian): > 100 µM
- TGI (786-0 renal): > 100 µM
- TGI (CAKI-1 renal): > 100 µM
- TGI (IGROV1 ovarian): > 100 µM
- TGI (UACC-62 melanoma): > 100 µM
- TGI (CCRF-CEM leukemia): 52.8 µM
- TGI (RPMI-8226 leukemia): 78.9 µM
- TGI (RXF 393 renal): > 100 µM
- TGI (SNB-75 CNS): > 100 µM
- TGI (HOP-92 NSCLC): > 100 µM
- TGI (NCI/ADR-RES ovarian): > 100 µM
- TGI (NCI-H23 lung): > 100 µM
- TGI (SF-539 CNS): 66.1 µM
- TGI (ACHN renal): > 100 µM
- TGI (HOP-62 NSCLC): > 100 µM
- TGI (HS 578T breast): > 100 µM
- TGI (NCI-H522 lung): > 100 µM
- TGI (T-47D breast): > 100 µM
- TGI (MDA-N): > 100 µM
- TGI (PC-3 prostate): > 100 µM
- TGI (SNB-19 CNS): > 100 µM
- TGI (MCF7 breast): 96.7 µM
- TGI (DU-145 prostate): > 100 µM
- TGI (EKVX NSCLC): > 100 µM
- TGI (KM12 colon): > 100 µM
- TGI (BT-549 breast): > 100 µM
- TGI (COLO 205 colon): > 100 µM
- TGI (SW-620 colon): > 100 µM
- TGI (HCT-116 colon): > 100 µM
- TGI (SK-MEL-2 melanoma): > 100 µM
- TGI (OVCAR-5 ovarian): > 100 µM
- TGI (UO-31 renal): > 100 µM
- TGI (SK-MEL-5 melanoma): 32.2 µM
- TGI (MOLT-4 leukemia): 47.9 µM
- TGI (HCT-15 colon): > 100 µM
- TGI (M14 melanoma): > 100 µM
- TGI (A498 renal): > 100 µM
- TGI (SF-268 CNS): > 100 µM
- TGI (UACC-257 melanoma): > 100 µM
- TGI (MDA-MB-231 breast): > 100 µM
- TGI (OVCAR-4 ovarian): > 100 µM
